Like-named read-outs stand apart in the source and are kept apart here.
Columns and labels:
BCRP = BCRP (Homo sapiens (Human), UniProt Q9UNQ0); assay: BCRP transfected MDCKII canine Mdr1 knockout permeability/efflux, Assay 9; details: dog
Method: BCRP transfected MDCKII cells (Assay 8) and BCRP transfected MDCKII canine Mdr1 knockout cells (Assay 9) were cultured and plated according to manufacturer's recommendations.
Both positive and negative controls were used to assess functionality of P-gp or BCRP efflux in the assays. Stock solutions for assay controls and the test article were prepared in DMSO for final test concentration of 1 μM. Final organic concentration in the assay was 1%. All dosing solutions contained 10 μM lucifer yellow to monitor MDCKII cell monolayer integrity.
For the apical to basolateral determination (A to B), 75 μL of the test article in transport buffer were added to the apical side of the individual transwells and 250 μL of basolateral media, without compound or lucifer yellow, were added to each well. For the basolateral to apical determination (B to A), 250 μL of test article in transport buffer were added to each well and 75 μL transport buffer, without compound or lucifer yellow, were added to each transwell. All tests were performed in triplicate, and each compound was tested for both apical to basolateral and basolateral to apical transport. The plates were incubated for 2 hours on a Lab-Line Instruments Titer Orbital Shaker (VWR, West Chester, PA) at 50 rpm and 37° C. with 5% CO2. All culture plates were removed from the incubator, 50 μL of media were removed from the apical and basolateral portion of each well, and added to 150 μL of 1 μM labetalol in 2:1 acetonitrile (ACN): H2O, v/v.
The plates were read using a Molecular Devices (Sunnyvale, CA) Gemini Fluorometer to evaluate the lucifer yellow concentrations at excitation/emission wavelengths of 425/535 nm. […] The plates were sealed, and the contents of each well analyzed by LC MS/MS. The compound concentrations were determined from the ratio of the peak areas of the compound to the internal standard (labetalol) in comparison to the dosing solution.
A MDS Sciex API 4000 (Applied Biosystems, Foster City, CA) mass spectrometer was used for detection of the analytes in the ion spray positive mode. Analyte responses were measured by multiple reaction monitoring (“MRM”) of transitions unique to each compound (the protonated precursor ion and selected product ions for each test article and m/z 329 to m/z 162 for labetalol, the internal standard.
The total run time, including re-equilibration, for a single injection was 1.2 minutes. […] The total run time, including re-equilibration, for a single injection was 0.61 minutes.
An efflux ratio is calculated from the mean apical to basolateral (A-B) Papp data and basolateral to apical (B-A) Papp data: Efflux ratio=Papp(B−A)/Papp(A−B)

EGFR = EGFR (Homo sapiens (Human), UniProt P00533); assay: ErbB enzyme assay (CisBio HTRF KinEASE-TK), Assay 3; assay type: biochemical
In short: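 IC50 was taken where a 4-parameter logistic fit crossed 50 percent of control (DMSO 100, pre-quenched 0), read by ratiometric HTRF. Reactions ran 30 min at 22 °C with 1 mM ATP and 250 nM TK-substrate biotin in pH 7.4 HEPES buffer with MgCl2, Triton X-100 and 2% DMSO.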

EGFR wild type (EGFR WT) = EGFR wild type (EGFR WT) (Homo sapiens (Human), UniProt P00533); assay: Cellular phosphorylation assay, EGF-stimulated EGFR phosphorylation in engineered NIH 3T3 cells, Phospho-EGFR DuoSet IC ELISA, Assay 5; assay type: cell-based
In short: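 Phospho-EGFR ELISA on lysates of engineered NIH 3T3 EGFR WT cells, IC50 derived from concentration curves. Cells plated at 20,000/well overnight, given compound dilutions 1 h at 37 °C, then rEGF 100 ng/ml for a further 10 min before lysis.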

[1] = target: ErbB2 with Exon 20 YVMA insertion (HER2-YVMA) (Homo sapiens (Human), UniProt P04626, INS775YVMA); assay: Cellular phosphorylation assay, constitutive ErbB2 phosphorylation (Y1196) in engineered NIH 3T3 cells, Assay 4; assay type: cell-based
In short: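 In-cell Western in NIH 3T3 cells carrying ErbB2 exon 20 YVMA insertion, with no ligand stimulation. One hour compound exposure at 37 °C before fixation and anti-pY1196 plus GAPDH staining with dual-wavelength fluorescence. IC50 derived after GAPDH normalization.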

MDR1 (P-gp) = MDR1 (P-gp) (Homo sapiens (Human), UniProt P08183); assay: MDR1 transfected LLC-PK1 permeability/efflux, Assay 6; details: pig
[2] = target: ErbB2 insYVMA (HER2-YVMA, SEQ ID NO: 2) (Homo sapiens, UniProt P04626, INS775YVMA/P1170A); assay: biochemical; details: ErbB2 insYVMA enzyme assay
ErbB2 WT = ErbB2 WT (Homo sapiens (Human), UniProt P04626); assay: ErbB enzyme assay (CisBio HTRF KinEASE-TK), Assay 2; assay type: biochemical
In short: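 Readout is HTRF KinEASE-TK, using Sa-XL665 and cryptate antibody for 1 h at 22 °C, as percent of control between DMSO-only (100) and pre-quenched (0) reactions. The kinase reaction runs 30 min at 22 °C with 1 mM ATP and 250 nM biotinylated TK substrate, in HEPES pH 7.4 with MgCl2 and 2% DMSO.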

[3] = Assay 9 Pe Ratio, efflux ratio Papp(B-A)/Papp(A-B), BCRP transfected MDCKII canine Mdr1 knockout
[4] = LLC-PK1, Assay 6 Pe Ratio, efflux ratio Papp(B-A)/Papp(A-B), MDR1 transfected LLC-PK1

Chain of ErbB2 with Exon 20 YVMA insertion (HER2-YVMA) (P04626 other isoform, or with tags, fused parts or gaps ins YVMA behind 775): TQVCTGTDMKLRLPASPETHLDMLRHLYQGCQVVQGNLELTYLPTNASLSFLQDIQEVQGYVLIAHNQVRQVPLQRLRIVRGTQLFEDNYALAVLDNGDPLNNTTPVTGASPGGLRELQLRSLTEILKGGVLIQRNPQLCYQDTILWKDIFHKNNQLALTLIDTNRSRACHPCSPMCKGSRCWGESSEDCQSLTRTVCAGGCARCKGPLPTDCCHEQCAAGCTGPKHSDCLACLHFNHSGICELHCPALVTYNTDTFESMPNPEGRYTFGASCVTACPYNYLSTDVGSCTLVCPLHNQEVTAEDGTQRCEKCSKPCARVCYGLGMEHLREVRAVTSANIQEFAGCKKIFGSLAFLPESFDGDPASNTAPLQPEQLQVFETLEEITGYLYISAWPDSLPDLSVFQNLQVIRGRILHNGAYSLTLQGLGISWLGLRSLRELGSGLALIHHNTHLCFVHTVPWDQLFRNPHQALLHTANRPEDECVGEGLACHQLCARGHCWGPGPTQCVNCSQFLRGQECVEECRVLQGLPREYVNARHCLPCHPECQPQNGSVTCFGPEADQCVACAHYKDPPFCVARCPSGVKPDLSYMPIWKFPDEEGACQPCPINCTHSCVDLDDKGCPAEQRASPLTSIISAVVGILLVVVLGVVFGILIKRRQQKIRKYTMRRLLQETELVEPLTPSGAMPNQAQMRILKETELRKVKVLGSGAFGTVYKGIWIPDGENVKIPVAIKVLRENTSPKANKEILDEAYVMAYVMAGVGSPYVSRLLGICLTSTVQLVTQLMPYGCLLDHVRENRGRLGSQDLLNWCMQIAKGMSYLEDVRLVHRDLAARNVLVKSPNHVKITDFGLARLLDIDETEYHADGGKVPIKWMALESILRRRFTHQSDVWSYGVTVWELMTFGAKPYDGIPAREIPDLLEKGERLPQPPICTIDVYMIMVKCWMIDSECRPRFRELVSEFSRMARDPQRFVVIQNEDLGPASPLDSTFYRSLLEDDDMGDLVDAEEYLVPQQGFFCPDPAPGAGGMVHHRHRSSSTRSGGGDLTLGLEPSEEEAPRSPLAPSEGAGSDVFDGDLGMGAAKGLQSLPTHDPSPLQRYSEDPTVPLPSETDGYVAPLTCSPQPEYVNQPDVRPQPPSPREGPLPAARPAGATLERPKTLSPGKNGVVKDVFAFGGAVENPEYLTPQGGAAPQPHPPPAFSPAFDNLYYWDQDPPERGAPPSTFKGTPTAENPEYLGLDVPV
Chain of EGFR (P00533 25-1210): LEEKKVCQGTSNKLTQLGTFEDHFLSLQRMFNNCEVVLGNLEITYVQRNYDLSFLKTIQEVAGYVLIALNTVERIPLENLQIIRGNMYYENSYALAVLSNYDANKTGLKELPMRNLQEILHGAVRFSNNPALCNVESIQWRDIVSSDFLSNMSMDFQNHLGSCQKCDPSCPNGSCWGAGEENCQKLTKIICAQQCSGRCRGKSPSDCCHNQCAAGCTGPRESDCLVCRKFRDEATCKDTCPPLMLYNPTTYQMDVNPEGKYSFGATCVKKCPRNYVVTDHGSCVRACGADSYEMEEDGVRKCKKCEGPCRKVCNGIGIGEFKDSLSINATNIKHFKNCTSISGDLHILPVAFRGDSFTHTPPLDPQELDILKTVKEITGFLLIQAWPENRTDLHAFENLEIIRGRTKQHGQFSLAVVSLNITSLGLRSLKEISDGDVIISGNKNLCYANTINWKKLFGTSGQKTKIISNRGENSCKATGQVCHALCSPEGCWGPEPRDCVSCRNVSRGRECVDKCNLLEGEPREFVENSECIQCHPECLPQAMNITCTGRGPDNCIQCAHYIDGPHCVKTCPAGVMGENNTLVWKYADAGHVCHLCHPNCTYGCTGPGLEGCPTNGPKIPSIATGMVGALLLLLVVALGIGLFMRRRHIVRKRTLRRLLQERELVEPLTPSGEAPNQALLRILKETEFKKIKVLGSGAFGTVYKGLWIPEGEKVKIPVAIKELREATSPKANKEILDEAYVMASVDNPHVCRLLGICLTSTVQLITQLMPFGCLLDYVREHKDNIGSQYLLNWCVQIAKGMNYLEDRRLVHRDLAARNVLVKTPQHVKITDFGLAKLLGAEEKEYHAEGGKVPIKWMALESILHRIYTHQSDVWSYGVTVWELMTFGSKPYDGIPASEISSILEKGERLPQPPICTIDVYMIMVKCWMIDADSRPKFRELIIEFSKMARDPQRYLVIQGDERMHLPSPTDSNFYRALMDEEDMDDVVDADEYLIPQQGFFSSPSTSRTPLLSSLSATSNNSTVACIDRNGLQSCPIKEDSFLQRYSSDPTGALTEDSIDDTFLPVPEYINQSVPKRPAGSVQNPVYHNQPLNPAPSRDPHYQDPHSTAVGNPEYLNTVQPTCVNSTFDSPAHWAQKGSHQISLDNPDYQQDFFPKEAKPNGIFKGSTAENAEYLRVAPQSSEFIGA
Chain of EGFR wild type (EGFR WT) (P00533 25-1210): as above
Chain of BCRP (Q9UNQ0 whole entry): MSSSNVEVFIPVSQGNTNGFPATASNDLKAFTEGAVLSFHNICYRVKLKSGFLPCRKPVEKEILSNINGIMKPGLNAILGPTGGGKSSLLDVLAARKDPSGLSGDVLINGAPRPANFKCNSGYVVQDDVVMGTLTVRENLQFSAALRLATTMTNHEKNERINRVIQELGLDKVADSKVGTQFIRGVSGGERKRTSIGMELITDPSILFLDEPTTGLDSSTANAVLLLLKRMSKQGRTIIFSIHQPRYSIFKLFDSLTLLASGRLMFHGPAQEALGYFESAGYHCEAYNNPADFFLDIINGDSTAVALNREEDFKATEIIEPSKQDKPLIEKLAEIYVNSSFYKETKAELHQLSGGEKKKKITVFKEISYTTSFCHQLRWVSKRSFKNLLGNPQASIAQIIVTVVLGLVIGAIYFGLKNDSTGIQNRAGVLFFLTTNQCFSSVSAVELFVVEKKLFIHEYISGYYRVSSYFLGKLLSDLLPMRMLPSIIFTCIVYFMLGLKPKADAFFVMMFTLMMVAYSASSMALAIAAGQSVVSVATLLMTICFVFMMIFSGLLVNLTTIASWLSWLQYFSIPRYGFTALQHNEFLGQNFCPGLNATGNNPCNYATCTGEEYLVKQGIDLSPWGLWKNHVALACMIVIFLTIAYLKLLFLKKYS

SMILES | efflux ratio at 2 h, 1 μM (BCRP; [3]) | IC50 (EGFR) [nM] | IC50 (EGFR wild type (EGFR WT)) [nM] | IC50 [1] [nM] | efflux ratio at 2 h, 1 μM (MDR1 (P-gp); [4]) | IC50 ([2]; read-out: Assay 1 IC50) [nM] | IC50 (ErbB2 WT) [nM] | IC50 ([2]; Assay 1 IC50 (nM)) [nM] | efflux ratio at 2 h, 1 μM (BCRP) | efflux ratio at 2 h, 1 μM (MDR1 (P-gp); LLC-PK1)
CON1CCN(c2ncc3ncnc(Nc4ccc(Oc5ccc6c(c5)ncn6C)c(C)c4)c3n2)CC1 [Example 35, 6-(4-methoxypiperazin-1-yl)-N-(3-methyl-4-((1-methyl-1H-benzo[d]imidazol-5-yl)oxy)phenyl)pyrimido[5,4-d]pyrimidin-4-amine] | 1.2 | ≥ 10000 | ≥ 5000 | 7.8 | 1.3 | 33.5 | 94.2 |  |  | 
Cc1cc(Nc2ncnc3cnc(N4CCC4)nc23)ccc1Oc1ccc2c(c1)ncn2C [Example 36, 6-(azetidin-1-yl)-N-(3-methyl-4-((1-methyl-1H-benzo[d]imidazol-5-yl)oxy)phenyl)pyrimido[5,4-d]pyrimidin-4-amine] | 0.9 | 9000 | ≥ 5000 | 41.6 | 1.2 | 26.3 | 64.6 |  |  | 
Cc1cc(Nc2ncnc3cnc(-c4ccncc4)nc23)ccc1Oc1ccc2c(c1)ncn2C [Example 47, N-(3-methyl-4-((1-methyl-1H-benzo[d]imidazol-5-yl)oxy)phenyl)-6-(pyridin-4-yl)pyrimido[5,4-d]pyrimidin-4-amine bis(2,2,2-trifluoroacetate)] | 2.3 | ≥ 10000 | ≥ 5000 | 13.4 | 1.1 | 59.6 | 91 |  |  | 
Cc1cc(Nc2ncnc3cnc(-c4cnco4)nc23)ccc1Oc1ccc2c(c1)ncn2C [Example 48, N-(3-methyl-4-((1-methyl-1H-benzo[d]imidazol-5-yl)oxy)phenyl)-6-(oxazol-5-yl)pyrimido[5,4-d]pyrimidin-4-amine] | 7.2 | ≥ 10000 | ≥ 5000 | 48.5 | 1.6 | 56.6 | 189 |  |  | 
Cc1cc(Nc2ncnc3cnc(N4C[C@@H]5CC[C@H]4CO5)nc23)ccc1Oc1ccc2c(c1)ncn2C [Example 53, 6-((1S,4S)-2-oxa-5-azabicyclo[2.2.2]octan-5-yl)-N-(3-methyl-4-((1-methyl-1H-benzo[d]imidazol-5-yl)oxy)phenyl)pyrimido[5,4-d]pyrimidin-4-amine] | 1.6 | ≥ 10000 | ≥ 5000 | 42.7 | 1.7 | 25 | 75.2 |  |  | 
Cc1cc(Nc2ncnc3cnc(N4C[C@H]5CC[C@@H]4CO5)nc23)ccc1Oc1ccc2c(c1)ncn2C [Example 54, 6-((1R,4R)-2-oxa-5-azabicyclo[2.2.2]octan-5-yl)-N-(3-methyl-4-((1-methyl-1H-benzo[d]imidazol-5-yl)oxy)phenyl)pyrimido[5,4-d]pyrimidin-4-amine] | 1.1 | 3430 | ≥ 5000 | 17.8 | 1.4 | 5.6 | 31.3 |  |  | 
Cc1cc(Nc2ncnc3cnc(N(C)CC(F)F)nc23)ccc1Oc1ccc2c(c1)ncn2C [Example 57, N2-(2,2-difluoroethyl)-N2-methyl-N8-(3-methyl-4-((1-methyl-1H-benzo[d]imidazol-5-yl)oxy)phenyl)pyrimido[5,4-d]pyrimidine-2,8-diamine] | 1.4 | 6630 | ≥ 5000 | 9.4 | 1.1 | 30.2 | 37.7 |  |  | 
Cc1cc(Nc2ncnc3cnc(N4C5CCC4COC5)nc23)ccc1Oc1ccc2c(c1)ncn2C [Example 59, 6-(3-oxa-8-azabicyclo[3.2.1]octan-8-yl)-N-(3-methyl-4-((1-methyl-1H-benzo[d]imidazol-5-yl)oxy)phenyl)pyrimido[5,4-d]pyrimidin-4-amine] | 7.4 | ≥ 10000 | ≥ 5000 | 23.5 | 2 | 29.7 | 44.3 |  |  | 
[2H]C([2H])([2H])Nc1ncc2ncnc(Nc3ccc(Oc4ccc5c(c4)ncn5C)c(C)c3)c2n1 [Example 65, N2-(methyl-d3)-N8-(3-methyl-4-((1-methyl-1H-benzo[d]imidazol-5-yl)oxy)phenyl)pyrimido[5,4-d]pyrimidine-2,8-diamine] | 1.9 | 3000 | ≥ 5000 | 8.8 | 1.6 | 8.6 | 23 |  |  | 
[2H]c1nc(Nc2ccc(Oc3ccc4c(c3)ncn4C)c(C)c2)c2nc(N3CCOCC3)nc([2H])c2n1 [Example 68, N-(3-methyl-4-((1-methyl-1H-benzo[d]imidazol-5-yl)oxy)phenyl)-6-morpholinopyrimido[5,4-d]pyrimidin-2,8-d2-4-amine] | 0.9 | 8230 | ≥ 5000 | 10.7 | 1.8 | 10.2 | 16.3 |  |  | 
Cc1cc(Nc2ncnc3cnc(N4CCOCC4)nc23)ccc1Oc1cc(F)c2c(c1)ncn2C.O=C(O)C(F)(F)F [Example 70, N-(4-((7-fluoro-1-methyl-1H-benzo[d]imidazol-5-yl)oxy)-3-methylphenyl)-6-morpholinopyrimido[5,4-d]pyrimidin-4-amine 2,2,2-trifluoroacetate] | 1 | ≥ 10000 | ≥ 5000 | 4.9 | 1.8 |  | 70.3 | 106 |  | 
Cc1cc(Nc2ncnc3cnc(N4CCO[C@@H](C)C4)nc23)ccc1Oc1ccc2c(c1)ncn2C.O=C(O)C(F)(F)F [Example 74, (S)—N-(3-methyl-4-((1-methyl-1H-benzo[d]imidazol-5-yl)oxy)phenyl)-6-(2-methylmorpholino)pyrimido[5,4-d]pyrimidin-4-amine 2,2,2-trifluoroacetate] |  | 3720 | ≥ 5000 | 14.6 |  |  | 35.5 | 33 | 1.3 | 1.7
Cc1cc(Nc2ncnc3cnc(N4CC5CC4CO5)nc23)ccc1Oc1ccc2c(c1)ncn2C.O=C(O)C(F)(F)F (stereo not shown) [Example 77, 6-(2-oxa-5-azabicyclo[2.2.1]heptan-5-yl)-N-(3-methyl-4-((1-methyl-1H-benzo[d]imidazol-5-yl)oxy)phenyl)pyrimido[5,4-d]pyrimidin-4-amine 2,2,2-trifluoroacetate] | 1.9 | ≥ 10000 | ≥ 5000 | 17.2 | 1.7 |  | 48.9 | 26 |  | 
Cc1cc(Nc2ncnc3cnc(N4CCOCC4)nc23)c(F)cc1Oc1ccc2c(c1)ncn2C.O=C(O)C(F)(F)F [Example 78, N-(2-fluoro-5-methyl-4-((1-methyl-1H-benzo[d]imidazol-5-yl)oxy)phenyl)-6-morpholinopyrimido[5,4-d]pyrimidin-4-amine 2,2,2-trifluoroacetate] | 1.1 | ≥ 10000 | ≥ 5000 | 36.7 | 1.3 |  | 422 | 60.4 |  | 
Cc1cc(Nc2ncnc3cnc(N4C(C)CCS4(=O)=O)nc23)ccc1Oc1ccc2c(c1)ncn2C.O=C(O)C(F)(F)F (stereo not shown) [Example 79, 3-methyl-2-(8-((3-methyl-4-((1-methyl-1H-benzo[d]imidazol-5-yl)oxy)phenyl)amino)pyrimido[5,4-d]pyrimidin-2-yl)isothiazolidine 1,1-dioxide 2,2,2-trifluoroacetate] | 9.8 | 3490 | ≥ 5000 | 7.7 | 7.1 |  | 33.8 | 26.3 |  | 
Cn1cnc2cc(Oc3ccc(Nc4ncnc5cnc(N6CCOCC6)nc45)cc3F)ccc21.O=C(O)C(F)(F)F [Example 80, N-(3-fluoro-4-((1-methyl-1H-benzo[d]imidazol-5-yl)oxy)phenyl)-6-morpholinopyrimido[5,4-d]pyrimidin-4-amine 2,2,2-trifluoroacetate] | 2.4 | ≥ 10000 | ≥ 5000 | 47.1 | 2.1 |  | 431 | 35.6 |  | 

From patent publication US11834453B2, “Substituted pyrimido[5,4-d]pyrimidines as HER2 inhibitors” (Array BioPharma Inc., priority 2020, dated 2023)
